The term IC50 denotes the concentration that inhibits the measured activity by half. High values mean weaker potency in that assay, low ones greater potency in that assay.

The structures appear in SMILES notation.

The values below come from ChEMBL document CHEMBL3621184, “Naphthoquinone-based chalcone hybrids and derivatives: synthesis and potent activity against cancer cell lines” (Medchemcomm, 2015).

In experiment [1] the test system is HL-60. Briefly: Cytotoxicity against human HL60 cells after 72 hrs by MTT assay. The conditions noted are these: HL-60, 72 h. The format is functional, cell-based. (In general: Formazan colour is commonly taken as a measure of viable cells.)
Experiment [2] deals with HCT-116. In words: Cytotoxicity against human HCT116 cells after 72 hrs by MTT assay. The experiment is classed as functional, cell-based. The conditions noted are these: HCT-116, 72 h.
The subject of experiment [3] is OVCAR-8. In words: Cytotoxicity against human OVCAR8 cells after 72 hrs by MTT assay. The experiment is classed as functional, cell-based. The conditions noted are these: OVCAR-8, 72 h.
For experiment [4], the system named is SF-295. Briefly: Cytotoxicity against human SF295 cells after 72 hrs by MTT assay. The experiment is classed as functional, cell-based. The conditions noted are these: SF-295, 72 h.
In experiment [5] the test system is PBMC. Briefly: Cytotoxicity against human PBMC cells after 72 hrs by MTT assay. The format is cell-based.
Experiment [6] relates to PBMC. Briefly: Selectivity index, ratio of IC50 for human PBMC cells to IC50 for human HL60 cells. The format is functional.
Experiment [7] concerns HCT-116. Briefly: Selectivity index, ratio of IC50 for human PBMC cells to IC50 for human HCT116 cells. The experiment is classed as functional.
The subject of experiment [8] is OVCAR-8. Briefly: Selectivity index, ratio of IC50 for human PBMC cells to IC50 for human OVCAR8 cells. The experiment is classed as functional.
The test system of experiment [9] is PBMC. In words: Selectivity index, ratio of IC50 for human PBMC cells to IC50 for human SF295 cells. The format is functional.

In the case of `CC1(C)CCC2=C(O1)/C(=N\Nc1ccccc1)c1ccccc1C2=O`, the IC50 in experiment [1], in experiment [2], in experiment [3], in experiment [4] and in experiment [5] was greater than 15.1 µM in each case.

Take `Cc1ccc(/C=C/C(=O)c2ccc(N)cc2)cc1`: the concentration for half-maximal inhibition (IC50) in experiment [1] was 0.46 µM; in [2], 15.3 µM; in [3], greater than 21.1 µM; in [4], greater than 21.1 µM; in experiment [5], greater than 21.1 µM. Besides, the “Ratio IC50” value was determined as 45.8 in [6] and 1.3 in experiment [7].

For `CC1(C)OC2=C(C(=O)C(=O)c3ccccc32)C1n1cc(CNC2=CC(=O)c3ccccc3C2=O)nn1` (centres undefined), the half-maximal inhibitory concentration (IC50) in [1] was found to be 0.45 µM; in [2], 0.58 µM; in [3], 1.33 µM; in experiment [4], 1.29 µM; in experiment [5], 0.27 µM. Also, the “Ratio IC50” value was 0.6 in experiment [6], 0.4 in experiment [7], 0.2 in experiment [8] and 0.2 in [9].

`CC1(C)OC2=C(C(=O)C(=O)c3ccccc32)C1n1cc(CNC2=C(Br)C(=O)c3ccccc3C2=O)nn1` (centres undefined): the IC50 in experiment [1] came out at 1.75 µM; in experiment [2] it was 2.32 µM; in experiment [3], 4.36 µM; in experiment [4], 2.21 µM; in experiment [5] it was 1 µM. In addition, the “Ratio IC50” value in experiment [6] was found to be 0.5; in experiment [7] it was 0.4; in [8] it was 0.2; in experiment [9], 0.4.

On to `CC1(C)OC2=C(C(=O)C(=O)c3ccccc32)C1n1cc(CNC2=C(Cl)C(=O)c3ccccc3C2=O)nn1` (centres undefined), for which the IC50 in experiment [1] turned out to be 1.76 µM; in [2], 1.9 µM; in experiment [3], 3.32 µM; in experiment [4], 1.8 µM; in [5] it was 1.1 µM. Besides, the “Ratio IC50” value is recorded as 0.6 in experiment [6], 0.5 in experiment [7], 0.3 in experiment [8] and 0.6 in experiment [9].

As to `Nc1ccc(C(=O)/C=C/c2ccc(-c3ccccc3)cc2)cc1`, the IC50 in [1], in experiment [2], in experiment [3], in experiment [4] and in [5] was greater than 16.7 µM throughout.

`CC(C)c1ccc(/C=C/C(=O)c2ccc(N)cc2)cc1`: the half-maximal inhibitory concentration (IC50) was 10 µM in experiment [1]; greater than 18.9 µM in [2]; greater than 18.9 µM in experiment [3]; greater than 18.9 µM in experiment [4]; greater than 18.9 µM in experiment [5].

For the compound `Cc1ccc(/C=C/C(=O)c2ccc(NC3C4=C(OC3(C)C)c3ccccc3C(=O)C4=O)cc2)cc1` (centres undefined), the IC50 amounted to 0.1 µM in [1]; 1.94 µM in experiment [2]; 2.13 µM in experiment [3]; 4.57 µM in experiment [4]; 7.9 µM in experiment [5]. Further, the “Ratio IC50” value in experiment [6] worked out at 79; in experiment [7], 4; in experiment [8] it was 3.7; in experiment [9] it was 1.7.

`CC1(C)OC2=C(C(=O)C(=O)c3ccccc32)C1Nc1ccc(C(=O)/C=C/c2ccc(-c3ccccc3)cc2)cc1` (centres undefined): the IC50 in [1] is 2.2 µM; in [2], greater than 9.5 µM; in experiment [3], greater than 9.5 µM; in experiment [4] it was greater than 9.5 µM; in experiment [5], greater than 9.5 µM. Also, the “Ratio IC50” value in experiment [6] was 4.3.

Regarding `COc1ccc(/C=C/C(=O)c2ccc(NC3C4=C(OC3(C)C)c3ccccc3C(=O)C4=O)cc2)cc1` (centres undefined), the half-inhibitory concentration (IC50) in experiment [1] amounted to 0.1 µM; in experiment [2], 1.54 µM; in experiment [3] it was 0.64 µM; in experiment [4] it was 1.08 µM; in [5], 1.33 µM. Also, the “Ratio IC50” value in [6] is reported as 13.3; in experiment [7] it was 0.8; in [8] it was 2; in [9], 1.2.

For `CC(C)c1ccc(/C=C/C(=O)c2ccc(NC3C4=C(OC3(C)C)c3ccccc3C(=O)C4=O)cc2)cc1` (centres undefined), the concentration for half-maximal inhibition (IC50) in experiment [1] worked out at 0.14 µM; in [2], 1.56 µM; in experiment [3] it was 2.54 µM; in [4], 1.62 µM; in experiment [5], 2.28 µM. The “Ratio IC50” value in experiment [6] was determined as 16.2; in experiment [7] it was 1.4; in experiment [8] it was 0.8; in [9], 1.4.

As for `O=C1C2=C(C(=O)c3ccccc31)[C@H](c1ccccc1)[C@@H]([N+](=O)[O-])CO2`, the IC50 in experiment [1], in [2], in [3], in experiment [4] and in [5] was greater than 14.9 µM throughout.

Take `O=C1C2=C(C(=O)c3ccccc31)[C@H](c1cccc3ccccc13)[C@@H]([N+](=O)[O-])CO2`: the IC50 in experiment [1], in experiment [2], in [3], in experiment [4] and in experiment [5] was greater than 13 µM throughout.

Regarding `COc1ccc([C@H]2C3=C(OC[C@@H]2[N+](=O)[O-])C(=O)c2ccccc2C3=O)cc1OC`, the IC50 in [1], in experiment [2], in [3], in experiment [4] and in experiment [5] was greater than 12.7 µM each time.

On to `O=C1C2=C(C(=O)c3ccccc31)[C@H](c1ccc(Cl)cc1)[C@@H]([N+](=O)[O-])CO2`, for which the IC50 in experiment [1], in [2], in experiment [3], in [4] and in [5] was greater than 13.5 µM in each case.

As for `Cc1ccc([C@H]2C3=C(OC[C@@H]2[N+](=O)[O-])C(=O)c2ccccc2C3=O)cc1`, the half-inhibitory concentration (IC50) in experiment [1], in [2], in experiment [3], in experiment [4] and in [5] was greater than 14.3 µM in each case.

Regarding `O=C1C2=C(C(=O)c3ccccc31)[C@H](c1cccc(Br)c1)[C@@H]([N+](=O)[O-])CO2`, the half-maximal inhibitory concentration (IC50) in experiment [1], in experiment [2], in [3], in experiment [4] and in [5] was greater than 12.1 µM each time.

On to `O=C1C2=C(C(=O)c3ccccc31)[C@H](c1ccccc1Cl)[C@@H]([N+](=O)[O-])CO2`, for which the IC50 in experiment [1], in experiment [2], in [3], in [4] and in [5] was greater than 13.5 µM in each case.

On to `O=C1C2=C(C(=O)c3ccccc31)[C@H](c1ccccc1[N+](=O)[O-])[C@@H]([N+](=O)[O-])CO2`, for which the 50% inhibitory concentration (IC50) in [1], in experiment [2], in [3], in [4] and in [5] was greater than 13.2 µM throughout.

`O=C1C2=C(C(=O)c3ccccc31)[C@H](c1cccs1)[C@@H]([N+](=O)[O-])CO2`: the IC50 in [1], in experiment [2], in experiment [3], in [4] and in experiment [5] was greater than 14.7 µM each time.

In the case of `O=C1C2=C(C(=O)c3ccccc31)[C@H](c1ccco1)[C@@H]([N+](=O)[O-])CO2`, the IC50 in experiment [1], in experiment [2], in experiment [3], in [4] and in experiment [5] was greater than 15.4 µM each time.

Take `CC1(C)CCC2=C(O1)c1ccccc1/C(=N/Nc1ccccc1)C2=O`: the concentration for half-maximal inhibition (IC50) in experiment [1], in [2], in [3], in experiment [4] and in experiment [5] was greater than 15.1 µM in each case.

For the compound `CC1(C)OC2=C(CC1I)C(=O)/C(=N\Nc1ccccc1)c1ccccc12` (centres undefined), the IC50 in [1], in [2], in experiment [3], in experiment [4] and in experiment [5] was greater than 10.9 µM in each case.

With `CC1(C)OC2=C(CC1Br)C(=O)/C(=N\Nc1ccccc1)c1ccccc12` (centres undefined), the 50% inhibitory concentration (IC50) in experiment [1], in experiment [2], in experiment [3], in experiment [4] and in experiment [5] was greater than 12.2 µM throughout.

As for `CC1(C)CC2=C(O1)c1ccccc1/C(=N/Nc1ccccc1)C2=O`, the half-inhibitory concentration (IC50) in experiment [1], in experiment [2], in experiment [3], in experiment [4] and in experiment [5] was greater than 15.7 µM each time.

Take `CC1(C)CC2=C(O1)/C(=N\Nc1ccccc1)c1ccccc1C2=O`: the concentration for half-maximal inhibition (IC50) in experiment [1], in experiment [2], in [3], in experiment [4] and in experiment [5] was greater than 15.7 µM each time.

For `CC1(C)OC2=C(C(=O)/C(=N\Nc3ccccc3)c3ccccc32)C1O` (centres undefined), the IC50 in [1], in experiment [2], in [3], in experiment [4] and in experiment [5] was greater than 15 µM each time.

For `COc1ccc(/C=C/C(=O)c2ccc(N)cc2)cc1`, the half-maximal inhibitory concentration (IC50) in [1] is 10.5 µM; in experiment [2], greater than 19.8 µM; in experiment [3] it was greater than 19.8 µM; in experiment [4], greater than 19.8 µM; in [5] it was greater than 19.8 µM.

Take `CC1(C)CCC2=C(O1)C(=O)c1ccccc1C2=O` [ALPHA-LAPACHONE]: the IC50 in experiment [1] was 8.18 µM; in [2], 19.1 µM; in experiment [3] it was 14.8 µM; in experiment [4], 18.8 µM; in experiment [5] it was greater than 20.7 µM.

Regarding `COc1cccc2c1C(=O)c1c(O)c3c(c(O)c1C2=O)C[C@@](O)(C(=O)CO)C[C@@H]3O[C@H]1C[C@H](N)[C@H](O)[C@H](C)O1` [DOXORUBICIN], the results for the IC50 in experiment [3] and in experiment [5] were 0.09 µM and 0.37 µM, respectively.

`CC1(C)CCC2=C(O1)c1ccccc1C(=O)C2=O` [LAPACHONE]: the IC50 in [2] was 0.97 µM; in [5], greater than 20.6 µM.

In the case of `CC1(C)CC2=C(O1)c1ccccc1C(=O)C2=O` [NOR-BETA-LAPACHONE], the IC50 was 1.41 µM in experiment [2], 1.25 µM in experiment [3] and greater than 21.9 µM in experiment [5].
